ChEMBL document CHEMBL3885881, “DrugMatrix”

Species on record: Rattus norvegicus
Test: DrugMatrix - Regimen: Daily Repeat
Format: toxicity, organism-based, Sprague-Dawley
Set-up: regimen Daily Repeat, gender Male, age 6-8 weeks
Settings: in vivo, po, 1500 mg/kg, route oral GAVAGE, dose level High, vehicle 100 % WATER; for ABSOLUTE BASOPHIL / ABSOLUTE EOSINOPHIL / ABSOLUTE LYMPHOCYTE / ABSOLUTE MONOCYTE / ABSOLUTE SEGMENTED NEUTROPHIL / BASOPHIL / EOSINOPHIL / ERYTHROCYTE COUNT / HEMATOCRIT / HEMOGLOBIN / LEUKOCYTE COUNT / LYMPHOCYTE / MEAN CORPUSCULAR HEMOGLOBIN / MEAN CORPUSCULAR HEMOGLOBIN CONCENTRATION / MEAN CORPUSCULAR VOLUME / MONOCYTE / NEUTROPHIL / NUCLEATED RED BLOOD CELLS / PLATELET COUNT: tissue Blood; for ALANINE AMINOTRANSFERASE / ALBUMIN / ALKALINE PHOSPHATASE / ASPARTATE AMINOTRANSFERASE / BLOOD UREA NITROGEN / CARBON DIOXIDE / CHLORIDE / CHOLESTEROL / CREATINE PHOSPHOKINASE / CREATININE / GLUCOSE / LACTATE DEHYDROGENASE / LIPASE / PHOSPHORUS / POTASSIUM / SODIUM / TOTAL BILIRUBIN / TOTAL PROTEIN / URIC ACID: tissue Plasma

## CNCCc1ccccn1 [BETAHISTINE]
72 h, time 3 day
  ABSOLUTE BASOPHIL: 0 CELLS/uL
  ABSOLUTE EOSINOPHIL: 56.67 CELLS/uL
  ABSOLUTE LYMPHOCYTE: 8977.33 CELLS/uL
  ABSOLUTE MONOCYTE: 168 CELLS/uL
  ABSOLUTE SEGMENTED NEUTROPHIL: 798 CELLS/uL
  BASOPHIL: 0%
  EOSINOPHIL: 0.67%
  ERYTHROCYTE COUNT: 5.37 x10E6/uL
  HEMATOCRIT: 33.67%
  HEMOGLOBIN: 12.53 G/DL
  LEUKOCYTE COUNT: 10 x10E3/uL
  LYMPHOCYTE: 89.67%
  MEAN CORPUSCULAR HEMOGLOBIN: 23.37 pg
  MEAN CORPUSCULAR HEMOGLOBIN CONCENTRATION: 37.27 G/DL
  MEAN CORPUSCULAR VOLUME: 62.73 fL
  MONOCYTE: 1.67%
  NEUTROPHIL: 8%
  NUCLEATED RED BLOOD CELLS: 0 /100WBC
  PLATELET COUNT: 1427.33 x10E3/uL
  ALANINE AMINOTRANSFERASE: 50 u/L
  ALBUMIN: 4.53 G/DL
  ALKALINE PHOSPHATASE: 288.67 u/L
  ASPARTATE AMINOTRANSFERASE: 71.67 u/L
  BLOOD UREA NITROGEN: 14.33 mg/dL
  CARBON DIOXIDE: 28.33 mmol/L
  CHLORIDE: 105.67 MEQ/L
  CHOLESTEROL: 76.33 mg/dL
  CREATINE PHOSPHOKINASE: 148.67 u/L
  CREATININE: 0.19 mg/dL
  GLUCOSE: 141 mg/dL
  LACTATE DEHYDROGENASE: 118 u/L
  LIPASE: 15.67 u/L
  PHOSPHORUS: 12.33 mg/dL
  POTASSIUM: 6.21 MEQ/L
  SODIUM: 150.8 MEQ/L
  TOTAL BILIRUBIN: 0.2 mg/dL
  TOTAL PROTEIN: 6.07 G/DL
  URIC ACID: 0.87 mg/dL
120 h, time 5 day
  ABSOLUTE BASOPHIL: 0 CELLS/uL
  ABSOLUTE EOSINOPHIL: 0 CELLS/uL
  ABSOLUTE LYMPHOCYTE: 10659 CELLS/uL
  ABSOLUTE MONOCYTE: 37.33 CELLS/uL
  ABSOLUTE SEGMENTED NEUTROPHIL: 870.33 CELLS/uL
  BASOPHIL: 0%
  EOSINOPHIL: 0%
  ERYTHROCYTE COUNT: 5.91 x10E6/uL
  HEMATOCRIT: 36.13%
  HEMOGLOBIN: 13.33 G/DL
  LEUKOCYTE COUNT: 11.57 x10E3/uL
  LYMPHOCYTE: 92%
  MEAN CORPUSCULAR HEMOGLOBIN: 22.63 pg
  MEAN CORPUSCULAR HEMOGLOBIN CONCENTRATION: 36.93 G/DL
  MEAN CORPUSCULAR VOLUME: 61.27 fL
  MONOCYTE: 0.33%
  NEUTROPHIL: 7.67%
  NUCLEATED RED BLOOD CELLS: 0 /100WBC
  PLATELET COUNT: 1404.67 x10E3/uL
  ALANINE AMINOTRANSFERASE: 60.67 u/L
  ALBUMIN: 4.2 G/DL
  ALKALINE PHOSPHATASE: 406.33 u/L
  ASPARTATE AMINOTRANSFERASE: 75.67 u/L
  BLOOD UREA NITROGEN: 14 mg/dL
  CARBON DIOXIDE: 25.33 mmol/L
  CHLORIDE: 105.33 MEQ/L
  CHOLESTEROL: 59 mg/dL
  CREATINE PHOSPHOKINASE: 153 u/L
  CREATININE: 0.19 mg/dL
  GLUCOSE: 171 mg/dL
  LACTATE DEHYDROGENASE: 64 u/L
  LIPASE: 8 u/L
  PHOSPHORUS: 13.97 mg/dL
  POTASSIUM: 5.7 MEQ/L
  SODIUM: 146.6 MEQ/L
  TOTAL BILIRUBIN: 0.27 mg/dL
  TOTAL PROTEIN: 5.9 G/DL
  URIC ACID: 2.07 mg/dL
